Data from publication PMC4514850, “A Novel TGR5 Activator WB403 Promotes GLP-1 Secretion and Preserves Pancreatic β-Cells in Type 2 Diabetic Mice” (PLoS ONE, 2015).

Columns and labels:
Type in all cases: in vivo
[1] = pharmacokinetic test in Sprague-Dawley rats; conditions: male, plasma, rat
Description: Adult male Sprague-Dawley rats fasted for 12 h were randomized into two groups (n = 5) for intravenous injection (i.v.) or oral administration (p.o.). Blood samples were collected from the orbital plexus at 10, 20, 30, 40, 60, 90, 120, 150, 180, 240, 360 and 480 min after administration. The concentration of WB403 in plasma was determined by an Aligent Technologies 1260 series HPLC system with a DAD detector. The oral bioavailability (F%) was calculated as F (%) = AUC0-∞(p.o.) / AUC0-∞(i.v.) × Dose (i.v.) / Dose (p.o.).

[2] = system: db/db mice; test: pancreas histology (H&E, IHC) of treated db/db mice
Description: Analysis of islet cell mass was performed using conventional methods. In brief, mice were sacrificed by cervical dislocation. The body part of the pancreas was rapidly excised, fixed in 10% neutral buffered formalin solution for 24 h and embedded in paraffin, then sectioned at 5 μm ready for hematoxylin and eosin (H&E) staining and immunohistochemistry staining (IHC). The latter was carried out using rabbit anti-insulin polyclonal antibody (Cat. no. 4590, 1:600) and rabbit anti-glucagon monoclonal antibody (Cat. no. 8233s, 1:200) from Cell Signaling Technology.
Fig 5 WB403 preserved the mass of pancreatic β-cells and normal distribution of α and β-cells. (A) H&E staining of pancreas from db/db mice, and statistical result. Islets were sized by the Image J analysis software on alternated pancreatic sections spaced each by 100 μm. (B) Immunohistochemical analysis of pancreatic sections by anti-insulin antibody or anti-glucagon antibody. (C) H&E staining of pancreas from HFD/STZ mice, and statistical result. Results are representative islets from each group. 1–5 in the column graph on the right represents normal mice, diabetic mice treated with vehicle, WB403 50 mg/kg, WB403 100 mg/kg, sitagliptin 100 mg/kg respectively (n = 5). *p<0.05, **p<0.01, ***p<0.001 vs. diabetes-vehicle group.

[3] = system: db/db mice; test: oral glucose tolerance test in db/db mice; conditions: 2 g/kg glucose, oral 50, 100 mg/kg 30 min before load
Description: Five-week old male ICR mice and db/db (C57BL BKS cg-M+/+ lepr-/-) mice were purchased from Shanghai SLAC Laboratory Animal Co., Ltd. (Shanghai, China). Mice were housed 4–5 per cage and allowed access to normal chow diet and autoclaved water freely. They were fed at a constant room temperature (25°C) with a 12-h light (7:00 AM)/dark (7:00 PM) cycle. All the mice were monitored at least daily, and no adverse events were observed. In general, the db/db mice show a high food intake at 4-week old and become obese and develop type 2 diabetes at 8-week age. Postprandial 2 h blood glucose was assessed and mice with the similar degree of hyperglycemia and body weight were randomized into different groups in order to get a similar average PBG in each group.
Mice were fasted overnight (14 h) before glucose tolerance tests. Normal mice received a 4 g/kg glucose challenge and for diabetic mice it’s 2 g/kg. WB403 at 50, 100 mg/kg, or sitagliptin at 100 mg/kg were administrated orally 30 min prior to glucose load (n = 10). For vehicle group, 0.5% CMC was administrated. Blood glucose levels were measured from tail bleeds with a glucometer (Roche, Accu-Chek Performa) at specified time points. Animals were treated and assessed in the order of the vehicle, WB403 50, 100 mg/kg and sitagliptin 100 mg/kg group.
Fig 2 Effects of WB403 on glucose tolerance during OGTT in normal and diabetic mice. […]

[4] = iv, i.v. 40 mg/kg, mean ± SEM, n = 5
[5] = po, p.o. 40 mg/kg, mean ± SEM, n = 5

CCc1cc(-c2nc(C)c(COCc3ccc(Br)cc3)s2)ccn1 [WB403, 4-(5-((4-bromobenzyloxy)-methyl)-4-methylthiazol-2-yl)-2-ethylpyridine]
AUC(0-inf) [1, 4]: 26900 ng·h/mL
AUC(0-t) [1, 4]: 25000 ng·h/mL
C0 [1, 4]: 25700 ± 4600 ng/mL
half-life [1, 4]: 2.77 ± 0.43 h
bioavailability ([1]; oral, p.o. 40 mg/kg vs i.v. 40 mg/kg, from AUC0-∞): 12%
AUC(0-inf) [1, 5]: 3220 ng·h/mL
AUC(0-t) [1, 5]: 2280 ng·h/mL
Cmax [1, 5]: 980 ± 160 ng/mL
Tmax [1, 5]: 1.4 h
half-life [1, 5]: 2.94 ± 1.08 h
islet area vs vehicle ([2]; H&E, after 4-week treatment): bigger islet area as compared to the vehicle mice, though no significant difference was found
α-cell and β-cell distribution in islets ([2]; IHC anti-insulin / anti-glucagon): significantly reduced α-cell in the islet core area and restored the normal cell distribution pattern
blood glucose tolerance (OGTT) vs vehicle [3]: The same results
